Here are results for one molecule from US8236827B2, “Compounds” (Spear Therapeutics Limited, priority 2009, dated 2012).

For one experiment, the system named is wild-type CHO cells. Kind of experiment: Cytotoxicity (MTS) in wild-type CHO cells. It counts as cell-based, Chinese Hamster. The method, then: CHO cells: Chinese Hamster Ovary (CHO) DUKXB11 cells were grown under standard cell culture conditions in α-MEM supplemented with 10% FCS, 1 unit/ml each of hypoxanthine and thymidine, and penicillin (100 IU/ml) and streptomycin (100 μg/ml) according to literature methods (Ding S, et al., Arch. Biochem. Biophys., 348: 403-410, 1997, the contents of which are incorporated herein by reference). Cells were grown at 37° C. in a humidified atmosphere plus 5% CO2.
A single cell suspension of CHO, CHO/CYP1A1 or CHO/CYP1B1 in 100 μl of the required cell culture medium was seeded onto 96-well plates at a cell density of 1500 cells per well and placed in an incubator for 24 h at 37° C. The stock solution of test compound in DMSO was then added to give a concentration range of 100, 30, 10, 3, 1, 0.3, 0.1, 0.03, 0.01, 0.003, 0.001, 0 μM. The final concentration of DMSO 0.2% was found not to affect the growth characteristics of the various CHO cell lines. The cells were incubated with the test compound for 96 h after which all the medium was aspirated and replaced with 100 μl of fresh medium to compensate for the loss of medium due to evaporation. The cells were incubated with 20 μl of the MTS assay reagent for 1.5 h and the absorbance per well at 510 nm measured using a plate reader. The mean absorbance and standard deviation for each test compound concentration was calculated versus a series of controls including (a) cells plus medium, (b) cell plus medium containing DMSO 0.2%, (c) medium alone, and (d) medium containing DMSO 0.2% and a range of test compound concentrations from 0 to 100 μM.
The MTS assay is a homogeneous, colorimetric method for determining the number of viable cells in proliferation, cytotoxicity or chemosensitivity assays (Cali J J, et al., “Luminescence-Based Methods and Probes for Measuring Cytochrome P450 Activity”, pp. 1-29. Promega Corporation, United States, 2004, the contents of which are incorporated herein by reference). The assay is composed of solutions of tetrazolium compound [3-(4,5-dimethylthiazol-2-yl)-5-(3-carboxymethoxyphenyl)-2-(4-sulfophenyl)-2H-tetrazolium, inner salt; MTS] and an electron coupling reagent (phenazine methosulfate) PMS. MTS is bioreduced by cells into a formazan product that is soluble in tissue culture medium. The absorbance of the formazan product at 510 nm can be directly measured from 96-well assay plates. The quantity of formazan product as measured by the amount of absorbance at 490 or 510 nm is directly proportional to the number of living cells in culture.

The target of the next experiment is C-Met (HGFR) (Homo sapiens, UniProt P08581). Kind of experiment: Cerep kinase screen. It counts as biochemical. The settings on record: read-out: % Inhibition of Control. The protocol: (§1) Kinase screening was performed by Cerep Laboratories (Celle l′Evescault, France). Compounds were screened in duplicate at a single concentration (10 μM). The results, set forth in Table 4 below, are expressed as percent inhibition of control specific activity: {100−[(measured specific activity/control specific activity)×100]} obtained in the presence of Compound XI and Compound V. ATP concentrations correspond to the ATP Km value for each individual kinase (Cerep, private communication). In each experiment, a reference compound was tested concurrently with Compound XI and Compound V in order to assess the assay reliability. IC50 values for the reference compounds were within accepted limits (±0.5 log units) of the historic average.
C-Met (HGFR), sequence (P08581 25-1390): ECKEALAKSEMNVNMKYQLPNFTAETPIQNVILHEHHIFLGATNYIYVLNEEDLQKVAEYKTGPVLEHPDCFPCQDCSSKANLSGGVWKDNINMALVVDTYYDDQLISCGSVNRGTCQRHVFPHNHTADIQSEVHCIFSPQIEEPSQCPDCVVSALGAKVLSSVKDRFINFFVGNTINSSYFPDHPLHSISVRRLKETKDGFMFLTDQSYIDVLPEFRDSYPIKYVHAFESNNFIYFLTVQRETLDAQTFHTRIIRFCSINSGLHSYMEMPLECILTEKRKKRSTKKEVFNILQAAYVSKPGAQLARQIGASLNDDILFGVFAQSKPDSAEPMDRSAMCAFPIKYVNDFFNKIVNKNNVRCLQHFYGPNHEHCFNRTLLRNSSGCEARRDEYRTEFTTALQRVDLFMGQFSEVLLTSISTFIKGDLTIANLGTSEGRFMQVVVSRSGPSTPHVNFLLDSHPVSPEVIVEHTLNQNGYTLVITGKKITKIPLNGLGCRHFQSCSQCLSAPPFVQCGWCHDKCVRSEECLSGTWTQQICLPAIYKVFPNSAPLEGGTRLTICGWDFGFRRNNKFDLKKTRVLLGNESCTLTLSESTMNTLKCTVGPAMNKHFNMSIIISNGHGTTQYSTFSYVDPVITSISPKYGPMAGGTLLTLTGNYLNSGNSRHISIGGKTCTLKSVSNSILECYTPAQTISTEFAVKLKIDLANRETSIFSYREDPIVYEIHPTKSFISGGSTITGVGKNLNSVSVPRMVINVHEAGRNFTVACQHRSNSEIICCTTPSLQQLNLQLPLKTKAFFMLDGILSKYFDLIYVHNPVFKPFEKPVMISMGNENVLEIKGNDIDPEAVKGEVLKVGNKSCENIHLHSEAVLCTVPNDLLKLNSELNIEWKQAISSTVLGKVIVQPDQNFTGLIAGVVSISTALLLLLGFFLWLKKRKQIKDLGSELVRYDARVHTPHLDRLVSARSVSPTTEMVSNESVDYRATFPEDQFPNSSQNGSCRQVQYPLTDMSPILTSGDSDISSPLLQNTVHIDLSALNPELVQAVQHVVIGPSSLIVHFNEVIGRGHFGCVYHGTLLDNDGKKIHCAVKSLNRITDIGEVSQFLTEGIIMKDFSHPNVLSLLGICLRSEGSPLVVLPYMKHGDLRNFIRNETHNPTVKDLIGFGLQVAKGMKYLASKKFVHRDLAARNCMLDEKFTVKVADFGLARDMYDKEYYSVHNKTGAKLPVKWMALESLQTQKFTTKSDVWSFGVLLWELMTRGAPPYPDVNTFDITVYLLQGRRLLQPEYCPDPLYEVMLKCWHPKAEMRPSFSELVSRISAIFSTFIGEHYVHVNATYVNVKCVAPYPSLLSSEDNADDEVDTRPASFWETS

Another experiment concerns the target Lyn (Homo sapiens, UniProt P07948). As to the kind of experiment: Cerep kinase screen. It is filed as biochemical. The settings on record: read-out: % Inhibition of Control. The method, then:
as §1

In another experiment the target is FLT-3 (Homo sapiens, UniProt P36888). Kind of experiment: Cerep kinase screen. It is filed as biochemical. The note with it: read-out: % Inhibition of Control. The protocol:
as §1

Another experiment has as its target PDGFRβ (Homo sapiens, UniProt P09619). As to the kind of experiment: Cerep kinase screen. It counts as biochemical. The settings on record: read-out: % Inhibition of Control. The method, then:
as §1

A further experiment concerns the target KDR (VEGFR2) (Homo sapiens, UniProt P35968). Kind of experiment: Cerep kinase screen. It counts as biochemical. The note with it: read-out: % Inhibition of Control. The method, then:
as §1

A further experiment concerns the target FLT-1 (Homo sapiens, UniProt P17948). As to the kind of experiment: Cerep kinase screen. The note with it: read-out: % Inhibition of Control. It is filed as biochemical. The method, then:
as §1

In another experiment the target is FGFR2 (Homo sapiens, UniProt P21802). Kind of experiment: Cerep kinase screen. The note with it: read-out: % Inhibition of Control. It counts as biochemical. The method, then: as §1
FGFR2, sequence (P21802 22-821, species assumed): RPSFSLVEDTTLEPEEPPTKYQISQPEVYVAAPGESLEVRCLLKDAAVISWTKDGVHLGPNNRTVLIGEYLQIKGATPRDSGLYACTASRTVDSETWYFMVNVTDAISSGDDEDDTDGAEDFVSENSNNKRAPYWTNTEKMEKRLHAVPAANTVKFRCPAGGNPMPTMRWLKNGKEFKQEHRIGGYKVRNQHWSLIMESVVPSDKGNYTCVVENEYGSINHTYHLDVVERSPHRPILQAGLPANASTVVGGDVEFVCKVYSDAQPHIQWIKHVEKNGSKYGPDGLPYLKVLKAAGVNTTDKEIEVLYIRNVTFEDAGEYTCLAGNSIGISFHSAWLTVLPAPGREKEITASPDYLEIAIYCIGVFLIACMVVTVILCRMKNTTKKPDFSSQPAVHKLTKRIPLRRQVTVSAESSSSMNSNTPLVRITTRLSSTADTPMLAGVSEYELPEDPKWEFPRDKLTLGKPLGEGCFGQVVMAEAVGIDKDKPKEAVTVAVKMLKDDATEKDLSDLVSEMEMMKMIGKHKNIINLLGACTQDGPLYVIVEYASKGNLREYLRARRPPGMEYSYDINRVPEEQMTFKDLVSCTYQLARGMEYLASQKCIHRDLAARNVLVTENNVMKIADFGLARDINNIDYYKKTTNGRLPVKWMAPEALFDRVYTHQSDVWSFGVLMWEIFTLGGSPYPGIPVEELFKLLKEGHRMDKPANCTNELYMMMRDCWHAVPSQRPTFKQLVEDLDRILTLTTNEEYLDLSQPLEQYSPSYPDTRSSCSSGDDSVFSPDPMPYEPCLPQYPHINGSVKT
In a further experiment the target is CSK (Homo sapiens, UniProt P41240). Kind of experiment: Cerep kinase screen. It counts as biochemical. The settings on record: read-out: % Inhibition of Control. The protocol:
as §1

A further experiment addresses Fyn (Homo sapiens, UniProt P06241). Kind of experiment: Cerep kinase screen. It is filed as biochemical. The settings on record: read-out: % Inhibition of Control. The protocol:
as §1

The target in another experiment is FGFR4 (Homo sapiens, UniProt P22455). As to the kind of experiment: Cerep kinase screen. The note with it: read-out: % Inhibition of Control. It counts as biochemical. The method, then:
as §1

Fyn, sequence (P06241 whole entry, species assumed): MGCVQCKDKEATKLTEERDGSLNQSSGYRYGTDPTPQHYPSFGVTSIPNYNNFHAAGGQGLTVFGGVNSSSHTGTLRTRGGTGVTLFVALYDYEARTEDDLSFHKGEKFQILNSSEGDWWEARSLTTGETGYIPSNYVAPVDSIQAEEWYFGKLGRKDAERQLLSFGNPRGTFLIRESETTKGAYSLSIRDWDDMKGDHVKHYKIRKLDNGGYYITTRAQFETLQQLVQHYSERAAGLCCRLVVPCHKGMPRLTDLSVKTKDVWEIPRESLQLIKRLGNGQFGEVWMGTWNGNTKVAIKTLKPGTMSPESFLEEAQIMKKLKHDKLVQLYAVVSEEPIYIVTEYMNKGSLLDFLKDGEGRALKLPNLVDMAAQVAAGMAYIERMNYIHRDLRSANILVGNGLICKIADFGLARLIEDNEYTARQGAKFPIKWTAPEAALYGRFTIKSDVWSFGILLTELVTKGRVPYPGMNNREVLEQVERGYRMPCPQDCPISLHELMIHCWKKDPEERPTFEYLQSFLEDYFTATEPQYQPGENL
PDGFRβ, sequence (P09619 33-1106, species assumed): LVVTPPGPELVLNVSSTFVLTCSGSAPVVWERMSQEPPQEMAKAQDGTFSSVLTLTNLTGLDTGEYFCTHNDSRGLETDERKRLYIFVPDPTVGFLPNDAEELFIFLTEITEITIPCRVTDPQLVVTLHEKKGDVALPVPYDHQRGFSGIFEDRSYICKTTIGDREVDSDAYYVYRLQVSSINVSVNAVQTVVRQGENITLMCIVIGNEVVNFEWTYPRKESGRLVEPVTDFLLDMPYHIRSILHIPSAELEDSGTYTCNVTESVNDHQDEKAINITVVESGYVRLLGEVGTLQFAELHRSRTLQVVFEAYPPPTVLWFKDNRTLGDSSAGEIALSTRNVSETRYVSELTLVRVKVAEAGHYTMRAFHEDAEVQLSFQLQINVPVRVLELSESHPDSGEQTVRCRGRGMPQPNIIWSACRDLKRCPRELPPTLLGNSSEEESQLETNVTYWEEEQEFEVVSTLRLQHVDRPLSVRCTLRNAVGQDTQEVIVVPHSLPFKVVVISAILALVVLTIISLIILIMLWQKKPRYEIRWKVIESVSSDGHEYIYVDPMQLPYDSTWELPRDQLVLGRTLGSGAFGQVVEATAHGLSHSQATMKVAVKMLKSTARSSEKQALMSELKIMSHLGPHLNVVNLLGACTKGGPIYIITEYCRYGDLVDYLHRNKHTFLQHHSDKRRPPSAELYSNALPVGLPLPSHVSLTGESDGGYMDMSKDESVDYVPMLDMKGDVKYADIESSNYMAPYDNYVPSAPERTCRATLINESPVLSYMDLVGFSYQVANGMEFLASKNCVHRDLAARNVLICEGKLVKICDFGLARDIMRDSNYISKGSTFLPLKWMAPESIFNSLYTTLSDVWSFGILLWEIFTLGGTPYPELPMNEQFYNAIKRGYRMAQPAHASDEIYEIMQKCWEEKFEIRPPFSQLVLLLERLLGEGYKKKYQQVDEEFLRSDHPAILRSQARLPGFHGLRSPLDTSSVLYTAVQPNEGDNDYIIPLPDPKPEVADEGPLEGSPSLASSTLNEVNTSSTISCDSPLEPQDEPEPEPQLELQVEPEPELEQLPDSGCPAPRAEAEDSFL
FLT-1, sequence (P17948 27-1338, species assumed): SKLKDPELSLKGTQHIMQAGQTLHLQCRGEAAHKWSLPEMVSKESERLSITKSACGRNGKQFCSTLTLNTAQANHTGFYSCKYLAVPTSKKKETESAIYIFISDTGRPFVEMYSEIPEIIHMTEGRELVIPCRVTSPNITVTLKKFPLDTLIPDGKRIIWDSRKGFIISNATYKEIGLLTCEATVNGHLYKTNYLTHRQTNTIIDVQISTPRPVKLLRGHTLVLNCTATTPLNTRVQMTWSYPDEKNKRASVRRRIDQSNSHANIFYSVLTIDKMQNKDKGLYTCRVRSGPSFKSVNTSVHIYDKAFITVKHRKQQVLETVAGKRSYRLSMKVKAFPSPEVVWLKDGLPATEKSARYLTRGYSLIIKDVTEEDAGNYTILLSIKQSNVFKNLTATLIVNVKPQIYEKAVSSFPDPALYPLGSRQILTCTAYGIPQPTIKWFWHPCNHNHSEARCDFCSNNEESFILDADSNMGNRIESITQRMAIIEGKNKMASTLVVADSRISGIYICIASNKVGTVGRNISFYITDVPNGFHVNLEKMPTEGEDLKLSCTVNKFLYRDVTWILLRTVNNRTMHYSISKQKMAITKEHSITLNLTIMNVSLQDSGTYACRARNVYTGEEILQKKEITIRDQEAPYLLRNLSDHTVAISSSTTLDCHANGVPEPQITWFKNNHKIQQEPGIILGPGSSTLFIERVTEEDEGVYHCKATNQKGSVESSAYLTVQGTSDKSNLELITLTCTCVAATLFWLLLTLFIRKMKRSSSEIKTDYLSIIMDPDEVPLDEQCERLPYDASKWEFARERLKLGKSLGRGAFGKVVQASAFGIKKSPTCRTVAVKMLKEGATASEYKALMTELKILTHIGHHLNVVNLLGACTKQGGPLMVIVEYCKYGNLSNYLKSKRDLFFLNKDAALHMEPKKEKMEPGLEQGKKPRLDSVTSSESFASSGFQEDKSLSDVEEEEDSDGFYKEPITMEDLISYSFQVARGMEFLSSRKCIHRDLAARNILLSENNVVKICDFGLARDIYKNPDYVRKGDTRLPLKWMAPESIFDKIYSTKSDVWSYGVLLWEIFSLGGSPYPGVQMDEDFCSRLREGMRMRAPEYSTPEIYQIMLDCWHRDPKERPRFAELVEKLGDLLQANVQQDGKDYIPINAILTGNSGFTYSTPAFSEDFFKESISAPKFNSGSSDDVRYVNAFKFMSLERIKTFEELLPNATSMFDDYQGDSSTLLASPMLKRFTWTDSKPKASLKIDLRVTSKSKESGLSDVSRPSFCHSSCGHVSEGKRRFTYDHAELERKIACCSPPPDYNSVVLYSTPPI

With `COc1ccc(-c2cc(-c3ccc4c(c3)OCO4)cc(=O)[nH]2)cc1OC` [Compound V], the “toxicity to wild-type CHO cells (in words)” value in the experiment with wild-type CHO cells is listed as “non toxic”. Besides, the 50% inhibitory concentration (IC50) in the experiment on wild-type CHO cells (Cricetulus griseus, CHO, 96 h, MTS) was > 100 µM. For the same molecule, the inhibition at 10 µM was -5% on C-Met (HGFR); -1% at Lyn; 21% on FLT-3; 7% at PDGFRβ; 19% at KDR (VEGFR2); 11% on FLT-1. In addition, the inhibition at 10 µM on FGFR2 was 13%; on CSK, 4%; on Fyn, 25%; on FGFR4, -3%.
